In data set [1] the target is T1, Androgen receptor (Homo sapiens, UniProt P10275, T878A).
Description: Agonist activity at Androgen receptor T877A mutant in human LNCaP-hr cells assessed as prostate specific antigen secretion measured after 3 days by enzyme-immunoassay
The target in data set [2] is T2, Androgen receptor (Homo sapiens, UniProt P10275).
T2 sequence (P10275 whole entry): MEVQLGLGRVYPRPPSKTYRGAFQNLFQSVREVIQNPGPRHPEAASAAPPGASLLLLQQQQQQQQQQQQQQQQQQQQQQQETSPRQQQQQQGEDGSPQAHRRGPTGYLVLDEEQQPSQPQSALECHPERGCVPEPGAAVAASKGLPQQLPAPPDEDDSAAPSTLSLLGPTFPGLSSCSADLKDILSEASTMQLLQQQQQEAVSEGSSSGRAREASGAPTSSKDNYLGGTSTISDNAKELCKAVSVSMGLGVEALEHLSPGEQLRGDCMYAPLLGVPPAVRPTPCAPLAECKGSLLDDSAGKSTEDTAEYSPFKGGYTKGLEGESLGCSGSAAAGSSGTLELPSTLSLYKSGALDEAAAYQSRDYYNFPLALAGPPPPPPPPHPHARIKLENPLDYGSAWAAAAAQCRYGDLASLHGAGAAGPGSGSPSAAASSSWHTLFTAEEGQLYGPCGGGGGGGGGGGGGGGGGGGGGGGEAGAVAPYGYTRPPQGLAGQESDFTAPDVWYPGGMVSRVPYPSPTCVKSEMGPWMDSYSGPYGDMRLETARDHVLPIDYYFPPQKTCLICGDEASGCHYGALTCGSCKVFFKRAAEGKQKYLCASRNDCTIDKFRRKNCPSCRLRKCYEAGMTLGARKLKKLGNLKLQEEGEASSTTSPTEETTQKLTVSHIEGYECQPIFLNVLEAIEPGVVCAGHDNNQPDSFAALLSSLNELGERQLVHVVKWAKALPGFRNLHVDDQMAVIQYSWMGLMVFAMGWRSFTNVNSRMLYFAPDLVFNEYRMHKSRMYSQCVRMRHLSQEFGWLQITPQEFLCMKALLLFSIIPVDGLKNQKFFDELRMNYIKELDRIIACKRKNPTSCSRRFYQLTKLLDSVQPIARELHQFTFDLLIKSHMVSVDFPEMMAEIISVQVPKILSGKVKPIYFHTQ
Description: Agonist activity at wild type Androgen receptor in human LNCaP-hr cells assessed as prostate specific antigen secretion measured after 3 days by enzyme-immunoassay

The target in data set [3] is T1, Androgen receptor. This is another data set of the same source.
Description: Antagonist activity at Androgen receptor T877A mutant (unknown origin) expressed in human Cos-7 cells co-expressing pGL3-MMTV-luc vector assessed as luciferase activity by reporter gene assay
The target in data set [4] is T2, Androgen receptor. The source holds these as a separate data set.
Description: Antagonist activity at wild type Androgen receptor (unknown origin) expressed in human Cos-7 cells co-expressing pGL3-MMTV-luc vector assessed as luciferase activity by reporter gene assay
Data set [5] concerns the target T1, Androgen receptor. The source holds these as a separate data set.
Description: Inhibition of Androgen receptor T877A mutant (unknown origin) expressed in Freestyle293F cells
Data set [6] concerns the target T2, Androgen receptor. This is another data set of the same source.
Description: Inhibition of wild type Androgen receptor (unknown origin) expressed in Freestyle293F cells
Data set [7] can be described thus: AUC in mouse at 30 mg/kg, po. As to conditions: plasma. In kind it is ADME, organism-based. Details: dose 30 mg/kg, route oral.
Data set [8] in a line: Mean residence time in mouse at 30 mg/kg, po. In kind it is ADME, organism-based. Details: dose 30 mg/kg, route oral. Conditions: in vivo.
Data set [9] is described as follows: Antitumor activity against human LNCaP-hr cells in BALB/c mouse xenograft model assessed as inhibition of tumor growth at 30 mg/kg, po bid for 28 days (reference value: 100%). Format: functional. (In general: Xenograft models place foreign cells or tissue in a host animal.)
A short description of data set [10]: Antitumor activity against human LNCaP-hr cells in BALB/c mouse xenograft model assessed as inhibition of tumor growth at 10 mg/kg, po bid for 28 days (reference value: 100%). In kind it is functional.
Data set [11] is described as follows: Antitumor activity against human LNCaP-hr cells in BALB/c mouse xenograft model assessed as plasma prostate specific antigen level at 30 mg/kg, po bid for 28 days by ELISA (reference value: 23.8 +/- 6.1 ng/ml). In kind it is functional.
A short description of data set [12]: Antitumor activity against human LNCaP-hr cells in BALB/c mouse xenograft model assessed as plasma prostate specific antigen level at 10 mg/kg, po bid for 28 days by ELISA (reference value: 23.8 +/- 6.1 ng/ml). Format: functional.
Data set [13] can be described thus: Half life in mouse plasma. In kind it is ADME, cell-free.
Data set [14] can be described thus: Antitumor activity against human LNCaP-hr cells in BALB/c mouse xenograft model assessed as inhibition of tumor growth at 100 mg/kg, po qd for 28 days (reference value: 100%). In kind it is functional.
Data set [15] can be described thus: Antitumor activity against human LNCaP-hr cells in BALB/c mouse xenograft model assessed as plasma prostate specific antigen level at 100 mg/kg, po qd for 28 days by ELISA (reference value: 23.8 +/- 6.1 ng/ml). Format: functional.

pEC50, pIC50: −log10 of the molar value.

T1 sequence (P10275 whole entry T878A): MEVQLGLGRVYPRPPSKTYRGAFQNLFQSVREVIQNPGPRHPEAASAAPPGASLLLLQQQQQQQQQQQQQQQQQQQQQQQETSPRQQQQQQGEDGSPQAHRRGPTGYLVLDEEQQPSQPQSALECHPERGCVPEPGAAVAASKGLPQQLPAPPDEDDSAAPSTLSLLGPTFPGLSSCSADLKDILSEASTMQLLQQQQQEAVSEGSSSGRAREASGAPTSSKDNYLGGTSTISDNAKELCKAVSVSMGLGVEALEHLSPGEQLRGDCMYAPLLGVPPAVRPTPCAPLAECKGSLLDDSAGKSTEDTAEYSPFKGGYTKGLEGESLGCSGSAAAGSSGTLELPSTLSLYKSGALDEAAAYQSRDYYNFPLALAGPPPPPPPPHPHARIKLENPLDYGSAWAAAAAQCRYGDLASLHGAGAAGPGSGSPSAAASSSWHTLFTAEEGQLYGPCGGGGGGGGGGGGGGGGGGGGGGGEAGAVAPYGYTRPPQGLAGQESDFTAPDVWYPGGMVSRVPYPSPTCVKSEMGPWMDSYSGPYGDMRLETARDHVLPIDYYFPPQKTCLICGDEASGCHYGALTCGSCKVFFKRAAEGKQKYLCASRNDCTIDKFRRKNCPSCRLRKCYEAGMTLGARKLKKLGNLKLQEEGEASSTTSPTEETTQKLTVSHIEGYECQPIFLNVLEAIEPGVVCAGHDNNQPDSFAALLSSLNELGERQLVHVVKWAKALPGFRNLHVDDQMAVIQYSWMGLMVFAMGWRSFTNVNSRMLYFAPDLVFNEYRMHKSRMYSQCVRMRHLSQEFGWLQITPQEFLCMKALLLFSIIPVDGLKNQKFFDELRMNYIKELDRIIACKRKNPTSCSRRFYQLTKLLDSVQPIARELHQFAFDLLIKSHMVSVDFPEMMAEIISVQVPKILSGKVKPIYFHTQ

Consider `N#Cc1ccc(N2CCC(O)(Cc3ccccc3)C2)cc1Cl` (configuration not stated), for which the pEC50 (in general, the EC50 on a negative log10 scale, so that one unit is a factor of ten) was 5.32 at Androgen receptor [1] and less than 5.00 at Androgen receptor [2]. The pIC50 (usually −log10 of the IC50, conventionally taken in molar units) against Androgen receptor [3] is 6.35; at Androgen receptor [4] it was 6.00; at Androgen receptor [5], 7.23; at Androgen receptor [6], 6.38.

Regarding `N#Cc1ccc(N2CCC(O)C2)cc1Cl` (configuration not stated), the results for the pEC50 on Androgen receptor [1] and at Androgen receptor [2] were 6.19 and 5.33, respectively. Besides, the pIC50 on Androgen receptor [3] is less than 5.00; at Androgen receptor [4], 7.09; at Androgen receptor [5], 7.52; against Androgen receptor [6], 6.92.

Turning to `C[C@@H]1N(c2ccc(C#N)c(Cl)c2)CC[C@@]1(O)c1ccc(F)cc1`, the negative-log EC50 (pEC50) at Androgen receptor [1] is 7.70; on Androgen receptor [2], less than 5.00. The pIC50 was less than 5.00 against Androgen receptor [3], 7.77 at Androgen receptor [4], 8.09 against Androgen receptor [5] and 8.10 on Androgen receptor [6].

For the compound `C[C@@H]1N(c2ccc(C#N)c(Cl)c2)CC[C@@]1(O)c1ccc(C(N)=O)cc1`, the pEC50 is 5.00 at Androgen receptor [1] and less than 5.00 on Androgen receptor [2]. For the same compound, the pIC50 was 8.05 against Androgen receptor [3], 7.77 against Androgen receptor [4], 7.38 at Androgen receptor [5] and 7.57 on Androgen receptor [6].

As for `CNC(=O)c1ccc([C@]2(O)CCN(c3ccc(C#N)c(Cl)c3)[C@H]2C)cc1`, the pEC50 at Androgen receptor [1] is 5.00; at Androgen receptor [2], less than 5.00. Also, the pIC50 at Androgen receptor [3] is 8.00; at Androgen receptor [4], 8.07; against Androgen receptor [5], 7.74; at Androgen receptor [6], 7.49.

For `CNC(=O)c1ccc([C@]2(O)CCN(c3ccc(C#N)c(Cl)c3)[C@H]2C)nc1`, the pEC50 was 5.29 on Androgen receptor [1] and less than 5.00 on Androgen receptor [2]. Further, the pIC50 is 7.00 against Androgen receptor [3], 6.92 at Androgen receptor [4], 7.80 on Androgen receptor [5] and 7.17 on Androgen receptor [6].

Regarding `CNC(=O)c1ccc([C@]2(O)CCN(c3ccc(C#N)c(Cl)c3)[C@H]2C)cn1`, the pEC50 on Androgen receptor [1] and at Androgen receptor [2] was less than 5.00 each time. The pIC50 at Androgen receptor [3] is 7.00; against Androgen receptor [4] it was 7.60; on Androgen receptor [5] it was 7.00; on Androgen receptor [6], 7.36.

Take `C[C@@H]1N(c2ccc(C#N)c(Cl)c2)CC[C@@]1(O)c1ccc(C(=O)N(C)C)nc1`: the pEC50 on Androgen receptor [1] and at Androgen receptor [2] was less than 5.00 in each case. For the same compound, the pIC50 against Androgen receptor [3] was 5.00; on Androgen receptor [4] it was 5.77; against Androgen receptor [5] it was 5.52; against Androgen receptor [6], 5.96.

Turning to `CNC(=O)c1ccc([C@@]2(O)CCN(c3ccc(C#N)c(Cl)c3)[C@@H]2C)cn1`, the pEC50 on Androgen receptor [1] and on Androgen receptor [2] was less than 5.00 in each case. Besides, the pIC50 is 5.80 on Androgen receptor [3], 5.19 at Androgen receptor [4], 7.01 against Androgen receptor [5] and 5.80 at Androgen receptor [6].

In the case of `C[C@@H]1N(c2ccc(C#N)c(Cl)c2)CC[C@@]1(O)c1ccc(N2CCCC2=O)nc1`, the pIC50 against Androgen receptor [3] was 6.80; against Androgen receptor [4], 7.96; at Androgen receptor [5], 7.06; on Androgen receptor [6], 7.89.

Regarding `CNC(=O)c1ccc([C@]2(O)CCN(c3ccc(C#N)c(OC)c3)[C@H]2C)cn1`, the pIC50 against Androgen receptor [3] was 6.14; against Androgen receptor [4] it was 7.21; on Androgen receptor [5], 6.62; at Androgen receptor [6], 6.92.

For `CNC(=O)c1ccc([C@]2(O)CCN(c3ccc(C#N)cc3)[C@H]2C)cn1`, the pIC50 at Androgen receptor [3] is 5.85; at Androgen receptor [4] it was 6.40; against Androgen receptor [5] it was 5.28; against Androgen receptor [6] it was 5.12.

Regarding `CNC(=O)c1ccc([C@]2(O)CCN(c3ccc(C#N)c(F)c3)[C@H]2C)cn1`, in data set [7], the AUC (commonly the area under the concentration-time curve, a measure of exposure) was 232 µg·h/mL. The MRT (commonly the average time that molecules of a dose stay in the body) in data set [8] worked out at 4.07 h. The T/C (commonly the result in the treated group divided by that in the control group, in per cent) worked out at 18% in [9] and 139% in [10]. The Activity in data set [11] was 4.3 ng/mL; in data set [12], 33 ng/mL. For the same compound, the pIC50 at Androgen receptor [3] is 5.77; at Androgen receptor [4] it was 6.54; at Androgen receptor [5] it was 5.77; against Androgen receptor [6] it was 6.08.

On to `N#Cc1ccc(N2CCC(O)(c3ccccc3)C2)cc1Cl` (racemic), for which the pEC50 on Androgen receptor [1] and on Androgen receptor [2] was less than 5.00 throughout. In addition, the pIC50 at Androgen receptor [3] is 6.60; against Androgen receptor [4] it was 6.42; against Androgen receptor [5], 6.89; on Androgen receptor [6], 6.43.

Turning to `N#Cc1ccc(N2CCC(O)(c3ccc(F)cc3)C2)cc1Cl` (racemic), the pEC50 at Androgen receptor [1] and on Androgen receptor [2] was less than 5.00 each time. Also, the pIC50 at Androgen receptor [3] is 7.19; at Androgen receptor [4], 7.17; on Androgen receptor [5], 7.44; against Androgen receptor [6], 6.74.

As to `C[C@](O)(CS(=O)(=O)c1ccc(F)cc1)C(=O)Nc1ccc(C#N)c(C(F)(F)F)c1` [(R)-BICALUTAMIDE], the half-life (commonly the time needed for the level to fall by half in the phase considered) in data set [13] was 101 h.

Consider `C[C@@](O)(CS(=O)(=O)c1ccc(F)cc1)C(=O)Nc1ccc(C#N)c(C(F)(F)F)c1` [(S)-BICALUTAMIDE], for which the half-life in data set [13] was 19 h.

As for `CC(O)(CS(=O)(=O)c1ccc(F)cc1)C(=O)Nc1ccc(C#N)c(C(F)(F)F)c1` (configuration not stated) [BICALUTAMIDE], the T/C in [14] is 191%. Besides, the Activity in data set [15] came to 45.6 ng/mL.

Source of the values: ChEMBL document CHEMBL2331321, “Design, synthesis, and biological evaluation of 3-aryl-3-hydroxy-1-phenylpyrrolidine derivatives as novel androgen receptor antagonists” (Bioorg Med Chem, 2013).
